test system: not listed separately; assay: Inhibition of YTHDF (unknown origin); design: species or system Homo sapiens

Row | EC50 [µM] | SMILES
1 | 1.69 | CCN(CC)CCn1sc2ccccc2c1=O
2 | 2.83 | O=c1c2ccccc2sn1CCN1CCOCC1

Row | SMILES | EC50 [µM]
3 | O=c1c2ccccc2[se]n1-c1ccccc1 [EBSELEN] | 1.5

molecular target: T1, YTH domain-containing family protein 2 (Homo sapiens, UniProt Q9Y5A9); assay: Inhibition of YTHDF2 YTH domain (unknown origin) (383 to 579 residues) expressed as Escherichia coli BL21 (DE3) Rosetta cells by HTFR based binding assay
T1 sequence (Q9Y5A9 whole entry): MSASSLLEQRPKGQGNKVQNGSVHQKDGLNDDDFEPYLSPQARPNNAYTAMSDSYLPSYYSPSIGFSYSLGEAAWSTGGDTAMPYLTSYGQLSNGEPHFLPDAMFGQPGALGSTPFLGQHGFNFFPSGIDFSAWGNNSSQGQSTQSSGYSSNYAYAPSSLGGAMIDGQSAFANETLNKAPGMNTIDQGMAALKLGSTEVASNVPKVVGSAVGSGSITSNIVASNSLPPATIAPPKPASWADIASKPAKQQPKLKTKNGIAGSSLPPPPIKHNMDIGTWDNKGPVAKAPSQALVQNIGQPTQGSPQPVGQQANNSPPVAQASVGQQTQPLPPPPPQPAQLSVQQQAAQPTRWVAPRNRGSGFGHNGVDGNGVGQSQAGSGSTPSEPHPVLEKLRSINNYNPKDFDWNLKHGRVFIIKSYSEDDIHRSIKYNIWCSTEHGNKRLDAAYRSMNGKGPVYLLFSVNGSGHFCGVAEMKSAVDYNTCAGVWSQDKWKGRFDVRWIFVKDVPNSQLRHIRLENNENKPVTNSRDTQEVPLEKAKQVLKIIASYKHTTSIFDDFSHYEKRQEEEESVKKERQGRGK

Row | IC50 [µM] | SMILES
4 | 174 | CNc1ncnc2c(C)[nH]nc12
5 | 410 | O=c1cc(C2CC2)[nH]c(=O)[nH]1
6 | 161 | Cn1c(=O)cc(C2CC2)[nH]c1=O
7 | 491 | CNc1ncnc2c(-c3ccccc3)[nH]nc12

From ChEMBL document CHEMBL5325457, “Targeting m6A binding protein YTHDFs for cancer therapy” (Bioorg Med Chem, 2023)
